Values of other authors as cited in patent US20260130846A1, “ORAL PRODUCT” (NICOVENTURES TRADING LIMITED, priority 2022, published 2026).

Columns and labels:
[1] = mammals
[2] = humans

- Time for which brain levels continue to increase after consumption [1]: 4 h
SMILES: CCNC(=O)CC[C@H](N)C(=O)O [Theanine, L-γ-glutamylethylamide]
- Absorption; plasma levels after oral consumption [2]: rapidly absorbed, with plasma levels rising in a linear dose-related manner
